Values quoted from earlier work as cited in patent US11896953B2, “HLB copolymers” (Sigma-Aldrich Co. LLC, priority 2017, dated 2024).

Conditions: 20-analyte mix for extended screening (Table 22)
In the case of `CN1CCN2c3ncccc3Cc3ccccc3C2C1` (centres unmarked) [Mirtazapine], the “Log P” value is listed as 2.90.
For `CN1CCCCC1CCN1c2ccccc2Sc2ccc([S+](C)[O-])cc21` (centres unmarked) [Mesoridazine], the “Log P” value is given as 3.90.
For `CN(C)CCC=C1c2ccccc2CCc2ccccc21` [Amitriptyline], the “Log P” value is given as 5.10.
For `CNC(=C[N+](=O)[O-])NCCSCc1csc(CN(C)C)n1` [Nizatidine], the “Log P” value is given as 1.10.
For `CN1[C@H]2CC[C@@H]1[C@@H](C(=O)O)[C@@H](OC(=O)c1ccccc1)C2` [Benzoylecgonine], the “Log P” value is listed as 1.71.
For `CN1CCN2c3ccccc3Cc3ccccc3C2C1` (centres unmarked) [Mianserin], the “Log P” value is given as 3.52.
In the case of `CCc1nn(CCCN2CCN(c3cccc(Cl)c3)CC2)c(=O)n1CCOc1ccccc1` [Nefazodone], the “Log P” value is listed as 4.70.
In the case of `CC[C@H]1OC(=O)[C@H](C)[C@@H](O[C@H]2C[C@@](C)(OC)[C@@H](O)[C@H](C)O2)[C@H](C)[C@@H](O[C@@H]2O[C@H](C)C[C@H](N(C)C)[C@H]2O)[C@](C)(OC)C[C@@H](C)C(=O)[C@H](C)[C@@H](O)[C@]1(C)O` [Clarithromycin], the “Log P” value is listed as 3.16.
For `N=C(N)NC(=O)c1nc(Cl)c(N)nc1N` [Amiloride], the “Log P” value is listed as −0.30.
For `O=[N+]([O-])NC1=NCCN1Cc1ccc(Cl)nc1` [Imidacloprid], the “Log P” value is listed as 0.57.
For `CN(C)CCN(Cc1cccs1)c1ccccn1` [Methapyrilene], the “Log P” value is listed as 2.87.
In the case of `Cc1ccnc2c1NC(=O)c1cccnc1N2C1CC1` [Nevirapine], the “Log P” value is listed as 2.50.
For `CCCCc1nc(Cl)c(CO)n1Cc1ccc(-c2ccccc2-c2nn[nH]n2)cc1` [Losartan], the “Log P” value is given as 6.10.

Same assay, conditions: analytes of the six analyte preliminary screen (Table 18)
For `Oc1ccc2ccc(O)cc2c1` [2,7-dihydroxynaphthalene], the “Log P” value is listed as 2.3.
For `Cc1ccc(C(N)=O)cc1` [p-Toluamide], the “Log P” value is given as 1.2.

Same assay, conditions: eight analytes of the 3-step protocol evaluations (Table 25)
For `CNCCCC1c2ccccc2C=Cc2ccccc21` [Protriptyline], the “Log P” value is given as 4.70.

Same assay, conditions: hydrophilic monomers
For `C=CC#N` [acrylonitrile], the “log P” value is listed as 0.25.
